Publication PMC5324734, “DOTA-Derivatives of Octreotide Dicarba-Analogs with High Affinity for Somatostatin sst2,5 Receptors” (Frontiers in Chemistry, 2017)
Values joined by “and” are separate entries in the source; they are usually repeats but may differ in a detail not shown here. Equal values may be shown once. Read-outs that look alike come from different tables or passages of the source. Where a SMILES comes first, the peptide text is derived from it. Bridges are numbered along the chain shown (N, C = ends). [ ]: non-standard residue; d: D form. The star is where a group is joined. DOTA = O=C(O)CN1CCN(CC(=O)O)CCN(CC(=O)*)CCN(CC(=O)O)CC1; 1Nal = N[C@@H](Cc1cccc2ccccc12)C(=O)O; Thr(ol) = C[C@@H](O)[C@H](N)CO; AllylGly = C=CC[C@H](N)C(=O)O; Bn = c1ccc(C*)cc1

Experiments:
sst5 receptor [1] = molecular target: T1, sst5 receptor (Homo sapiens, UniProt P35346); assay: Somatostatin receptor affinity, displacement of 125I-[LTT]-SRIF-28 (sst5); format: binding; conditions: complete displacement of [Leu8,D-Trp22,125I-Tyr25]-SRIF-28; cell membrane pellets from sst5-expressing human CHO cells; CEREP; mean ± SEM of three independent repetitions
T1 construct: host or cells: CHO cells (membrane pellets)
T1 sequence (P35346 whole entry): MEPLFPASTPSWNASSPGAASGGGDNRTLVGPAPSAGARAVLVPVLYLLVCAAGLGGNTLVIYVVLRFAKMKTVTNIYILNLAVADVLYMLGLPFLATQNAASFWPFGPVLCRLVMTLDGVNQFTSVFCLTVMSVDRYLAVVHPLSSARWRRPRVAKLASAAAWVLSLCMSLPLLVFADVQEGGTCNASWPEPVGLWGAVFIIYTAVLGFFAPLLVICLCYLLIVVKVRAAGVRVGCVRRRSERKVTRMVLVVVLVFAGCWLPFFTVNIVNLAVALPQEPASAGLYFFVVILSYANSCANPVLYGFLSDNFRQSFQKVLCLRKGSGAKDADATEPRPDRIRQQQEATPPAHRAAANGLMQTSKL
Description: (§1) Determination of Somatostatin receptors affinity was performed at CEREP (Le Bois l'Evêque, B. P. 3,001, 86,600 Celle l'Evescault, France). Cell membrane pellets were prepared from human sst2-expressing endogeneous IMR32 cells, and sst5-expressing human CHO cells. For each of the tested compounds, complete displacement experiments with the universal SRIF radio-ligand [Leu^8, D-Trp^22, ^125I-Tyr^25]-SRIF-28 (125I-[LTT]-SRIF-28) (2000 Ci/mmol; Anawa, Wangen, Switzerland) were performed. As control, unlabeled seglitide and SRIF-14 were run in parallel, using the same increasing concentrations, with sst2 and sst5 subtypes, respectively. IC50 values were calculated by non-linear regression analysis of the competition curves generated with mean replicate values using Hill equation curve. The analysis was performed using software developed at CEREP (Hill software) and validated by comparison with data generated by the commercial software SigmaPlot 4.0 for Windows.
(§2) The three DOTA conjugated compounds 3b, 4b, and 5b were tested for their ability to bind to the sst2 and sst5 receptors subtypes in complete displacement experiments using the universal somatostatin radioligand [^125I]-[Leu^8,D-Trp^22,Tyr^25]-somatostatin-28. IC50 values were calculated after quantification of the data using a computer-assisted image processing system (Table 1). Receptor subtypes sst2 and sst5 were chosen for preliminary binding assays because of their overexpression in some tumor types (Miller et al., [1995]). In Table 1, the affinities of the parent unconjugated compounds 3a, 4a, and 5a are also reported for comparison (Di Cianni et al., [2010]).

sst2 receptor [2] = molecular target: T2, sst2 receptor (Homo sapiens, UniProt P30874); assay: Somatostatin receptor affinity, displacement of 125I-[LTT]-SRIF-28 (sst2); format: binding; conditions: complete displacement of [Leu8,D-Trp22,125I-Tyr25]-SRIF-28; cell membrane pellets from human sst2-expressing endogeneous IMR32 cells; CEREP; mean ± SEM of three independent repetitions
T2 construct: Cell membrane pellets were prepared from human sst2-expressing endogeneous IMR32 cells; host or cells: IMR32 cells (membrane pellets)
T2 sequence (P30874 whole entry): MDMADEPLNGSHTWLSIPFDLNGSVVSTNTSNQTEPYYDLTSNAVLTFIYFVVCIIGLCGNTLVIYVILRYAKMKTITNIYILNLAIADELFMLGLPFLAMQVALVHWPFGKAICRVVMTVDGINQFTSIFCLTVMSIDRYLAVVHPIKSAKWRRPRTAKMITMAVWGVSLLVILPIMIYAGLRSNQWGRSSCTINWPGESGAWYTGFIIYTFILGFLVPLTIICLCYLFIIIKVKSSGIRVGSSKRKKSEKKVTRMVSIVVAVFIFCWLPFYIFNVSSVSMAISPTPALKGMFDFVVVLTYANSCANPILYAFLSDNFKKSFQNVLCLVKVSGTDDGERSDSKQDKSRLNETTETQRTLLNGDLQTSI
Description: as §1, §2

sst5 receptor [3] = molecular target: T1, sst5 receptor; set-up: method as in Di Cianni et al., 2010; conditions: free (unconjugated) dicarba-analogs; mean ± SEM; data published previously; ref Di Cianni et al., 2010; cited from earlier work
sst2 receptor [4] = molecular target: T2, sst2 receptor; set-up: method as in Di Cianni et al., 2010; conditions: free (unconjugated) dicarba-analogs; mean ± SEM; data published previously; ref Di Cianni et al., 2010; cited from earlier work
[5] = native hormone; ref Weckbecker et al., 2003; cited from earlier work
Description: Radiolabeled peptides, targeting specific receptors of malignant cells, in primis GPCRs, have emerged in the past years as one of the most promising tools for diagnosis and therapy of several kinds of metastatic tumors which express these receptors (Ramogida and Orvig, [2013]). Somatostatins SRIF-14 and SRIF-28 are peptide hormones, which have a wide range of pharmacological actions on exocrine and endocrine secretions (Brazeau et al., [1973]) mediated by direct interaction with at least five GPCRs. Chemically, they are -S-S- bridged cyclic peptides containing 14 and 28 amino acids, respective ...

Compound | IC50 (sst5 receptor [1]) [nM] | IC50 (sst2 receptor [2]) | IC50 (sst5 receptor [3]) [nM] | IC50 (sst2 receptor [4]) [nM] | in vivo half-life [5] [min]
C[C@@H](O)[C@@H](CO)NC(=O)[C@@H]1C/C=C\C[C@H](NC(=O)[C@@H](Cc2ccccc2)NC(=O)CN2CCN(CC(=O)O)CCN(CC(=O)O)CCN(CC(=O)O)CC2)C(=O)N[C@@H](Cc2ccccc2)C(=O)N[C@H](Cc2c[nH]c3ccccc23)C(=O)N[C@@H](CCCCN)C(=O)N[C@@H](Cc2ccc(OCc3ccccc3)cc2)C(=O)N1 [Compound 4b] ({DOTA}-[dF][AllylGly]F[dW]KY(Bn)[AllylGly][Thr(ol)]; staple (Z) 2-7) | 91 ± 7.8 | > 300 nM | – | – | –
C[C@@H](O)[C@@H]1NC(=O)[C@H](CCCCN)NC(=O)[C@@H](Cc2c[nH]c3ccccc23)NC(=O)[C@H](Cc2cccc3ccccc23)NC(=O)[C@@H](NC(=O)[C@H](N)Cc2ccccc2)C/C=C\C[C@@H](C(=O)N[C@H](CO)[C@@H](C)O)NC1=O [Compound 3a] (H-[dF][AllylGly][1Nal][dW]KT[AllylGly][Thr(ol)]; staple (Z) 2-7) | – | – | 16.5 ± 4.5 | 9.6 ± 0.9 | –
C[C@@H](O)[C@@H](CO)NC(=O)[C@@H]1C/C=C\C[C@H](NC(=O)[C@H](N)Cc2ccccc2)C(=O)N[C@@H](Cc2cccc3ccccc23)C(=O)N[C@H](Cc2c[nH]c3ccccc23)C(=O)N[C@@H](CCCCN)C(=O)N[C@@H](Cc2ccc(OCc3ccccc3)cc2)C(=O)N1 [Compound 5a] (H-[dF][AllylGly][1Nal][dW]KY(Bn)[AllylGly][Thr(ol)]; staple (Z) 2-7) | – | – | 4.9 ± 1 | 101 ± 9 | –
SRIF-14: native somatostatin peptide hormone, -S-S- bridged cyclic peptide containing 14 amino acids | – | – | – | – | < 3
C[C@@H](O)[C@@H](CO)NC(=O)[C@@H]1C/C=C\C[C@H](NC(=O)[C@@H](Cc2ccccc2)NC(=O)CN2CCN(CC(=O)O)CCN(CC(=O)O)CCN(CC(=O)O)CC2)C(=O)N[C@@H](Cc2cccc3ccccc23)C(=O)N[C@H](Cc2c[nH]c3ccccc23)C(=O)N[C@@H](CCCCN)C(=O)N[C@@H](Cc2ccc(OCc3ccccc3)cc2)C(=O)N1 [Compound 5b] ({DOTA}-[dF][AllylGly][1Nal][dW]KY(Bn)[AllylGly][Thr(ol)]; staple (Z) 2-7) | 12 ± 2.6 | > 100 nM and 160 nM | – | – | –
C[C@@H](O)[C@@H]1NC(=O)[C@H](CCCCN)NC(=O)[C@@H](Cc2c[nH]c3ccccc23)NC(=O)[C@H](Cc2cccc3ccccc23)NC(=O)[C@@H](NC(=O)[C@@H](Cc2ccccc2)NC(=O)CN2CCN(CC(=O)O)CCN(CC(=O)O)CCN(CC(=O)O)CC2)C/C=C\C[C@@H](C(=O)N[C@H](CO)[C@@H](C)O)NC1=O [Compound 3b] ({DOTA}-[dF][AllylGly][1Nal][dW]KT[AllylGly][Thr(ol)]; staple (Z) 2-7) | 130 ± 7 | 61 ± 5.4 nM | – | – | –
C[C@@H](O)[C@@H](CO)NC(=O)[C@@H]1C/C=C\C[C@H](NC(=O)[C@H](N)Cc2ccccc2)C(=O)N[C@@H](Cc2ccccc2)C(=O)N[C@H](Cc2c[nH]c3ccccc23)C(=O)N[C@@H](CCCCN)C(=O)N[C@@H](Cc2ccc(OCc3ccccc3)cc2)C(=O)N1 [Compound 4a] (H-[dF][AllylGly]F[dW]KY(Bn)[AllylGly][Thr(ol)]; staple (Z) 2-7) | – | – | 12.3 ± 0.3 | 46 ± 3 | –
